Source: ChEMBL document CHEMBL5303766, “Data for DCP probe FHT-2344” (2022)
The source made the active and inactive calls. The rule behind the calls is not given here.

What was measured:
[1] = target: Alpha-1A adrenergic receptor (Homo sapiens) (UniProt P35348); settings: Compound concentration 10.0 uM
[2] = target: Death-associated protein kinase 3 (Homo sapiens) (UniProt O43293); assay: DAPK3 SGC Tm panel (DSF); settings: for ΔTm: Compound concentration 10.0 uM
[3] = target: T1, Serine/threonine-protein kinase ULK1 (Homo sapiens) (UniProt O75385); assay: ULK1 SGC Tm panel (DSF); settings: for ΔTm: Compound concentration 10.0 uM
T1 sequence (whole entry): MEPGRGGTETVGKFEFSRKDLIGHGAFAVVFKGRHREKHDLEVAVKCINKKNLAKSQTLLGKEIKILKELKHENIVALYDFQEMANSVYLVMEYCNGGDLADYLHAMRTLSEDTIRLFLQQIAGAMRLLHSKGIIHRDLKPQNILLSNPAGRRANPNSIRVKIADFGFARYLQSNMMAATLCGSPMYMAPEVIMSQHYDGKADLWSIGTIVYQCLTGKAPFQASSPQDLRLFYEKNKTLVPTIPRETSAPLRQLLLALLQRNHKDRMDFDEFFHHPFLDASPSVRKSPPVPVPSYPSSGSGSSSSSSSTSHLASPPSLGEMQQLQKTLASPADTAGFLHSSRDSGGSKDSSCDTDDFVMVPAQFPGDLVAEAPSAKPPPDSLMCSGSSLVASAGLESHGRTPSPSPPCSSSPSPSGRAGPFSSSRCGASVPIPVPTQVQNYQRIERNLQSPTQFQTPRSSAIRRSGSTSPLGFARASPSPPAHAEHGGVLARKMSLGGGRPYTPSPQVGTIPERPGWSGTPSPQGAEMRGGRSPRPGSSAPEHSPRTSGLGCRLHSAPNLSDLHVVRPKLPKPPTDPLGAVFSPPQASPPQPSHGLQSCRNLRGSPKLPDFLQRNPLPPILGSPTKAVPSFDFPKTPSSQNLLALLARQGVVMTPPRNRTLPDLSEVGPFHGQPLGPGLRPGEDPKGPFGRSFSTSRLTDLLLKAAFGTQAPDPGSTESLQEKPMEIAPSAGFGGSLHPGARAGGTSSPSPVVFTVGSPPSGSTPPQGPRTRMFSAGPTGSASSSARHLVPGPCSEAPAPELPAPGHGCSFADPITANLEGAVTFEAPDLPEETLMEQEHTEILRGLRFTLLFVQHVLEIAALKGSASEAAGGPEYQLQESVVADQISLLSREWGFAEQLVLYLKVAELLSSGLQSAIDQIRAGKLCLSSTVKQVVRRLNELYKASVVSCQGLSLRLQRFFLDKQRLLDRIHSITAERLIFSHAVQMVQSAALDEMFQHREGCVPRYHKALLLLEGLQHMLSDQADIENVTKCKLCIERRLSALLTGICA

[4] = target: 5-hydroxytryptamine receptor 3A (Homo sapiens) (UniProt P46098); settings: Compound concentration 10.0 uM
5-hydroxytryptamine receptor 3A (Homo sapiens), sequence (P46098 whole entry): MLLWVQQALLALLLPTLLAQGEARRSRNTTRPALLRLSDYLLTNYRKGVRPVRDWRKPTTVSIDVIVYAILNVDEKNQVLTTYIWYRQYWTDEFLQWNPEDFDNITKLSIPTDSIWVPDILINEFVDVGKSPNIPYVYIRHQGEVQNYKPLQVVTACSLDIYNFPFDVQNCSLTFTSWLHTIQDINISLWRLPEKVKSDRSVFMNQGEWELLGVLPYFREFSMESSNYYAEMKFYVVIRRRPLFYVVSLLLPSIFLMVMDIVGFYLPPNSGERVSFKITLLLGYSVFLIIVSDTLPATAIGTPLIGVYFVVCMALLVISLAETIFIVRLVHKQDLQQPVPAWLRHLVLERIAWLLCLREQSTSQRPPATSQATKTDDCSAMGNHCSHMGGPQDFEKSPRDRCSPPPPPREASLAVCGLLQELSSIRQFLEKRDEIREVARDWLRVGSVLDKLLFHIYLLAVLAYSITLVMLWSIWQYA

[5] = target: SWI/SNF-related matrix-associated actin-dependent regulator of chromatin subfamily A member 2 (Homo sapiens, UniProt P51531); assay: Luciferase reporter assay: SMARCA2 transcriptional activity in a SMARCA4-mutant cell line; format: functional
SWI/SNF-related matrix-associated actin-dependent regulator of chromatin subfamily A member 2, sequence (P51531 whole entry, looked up, stated change not applied): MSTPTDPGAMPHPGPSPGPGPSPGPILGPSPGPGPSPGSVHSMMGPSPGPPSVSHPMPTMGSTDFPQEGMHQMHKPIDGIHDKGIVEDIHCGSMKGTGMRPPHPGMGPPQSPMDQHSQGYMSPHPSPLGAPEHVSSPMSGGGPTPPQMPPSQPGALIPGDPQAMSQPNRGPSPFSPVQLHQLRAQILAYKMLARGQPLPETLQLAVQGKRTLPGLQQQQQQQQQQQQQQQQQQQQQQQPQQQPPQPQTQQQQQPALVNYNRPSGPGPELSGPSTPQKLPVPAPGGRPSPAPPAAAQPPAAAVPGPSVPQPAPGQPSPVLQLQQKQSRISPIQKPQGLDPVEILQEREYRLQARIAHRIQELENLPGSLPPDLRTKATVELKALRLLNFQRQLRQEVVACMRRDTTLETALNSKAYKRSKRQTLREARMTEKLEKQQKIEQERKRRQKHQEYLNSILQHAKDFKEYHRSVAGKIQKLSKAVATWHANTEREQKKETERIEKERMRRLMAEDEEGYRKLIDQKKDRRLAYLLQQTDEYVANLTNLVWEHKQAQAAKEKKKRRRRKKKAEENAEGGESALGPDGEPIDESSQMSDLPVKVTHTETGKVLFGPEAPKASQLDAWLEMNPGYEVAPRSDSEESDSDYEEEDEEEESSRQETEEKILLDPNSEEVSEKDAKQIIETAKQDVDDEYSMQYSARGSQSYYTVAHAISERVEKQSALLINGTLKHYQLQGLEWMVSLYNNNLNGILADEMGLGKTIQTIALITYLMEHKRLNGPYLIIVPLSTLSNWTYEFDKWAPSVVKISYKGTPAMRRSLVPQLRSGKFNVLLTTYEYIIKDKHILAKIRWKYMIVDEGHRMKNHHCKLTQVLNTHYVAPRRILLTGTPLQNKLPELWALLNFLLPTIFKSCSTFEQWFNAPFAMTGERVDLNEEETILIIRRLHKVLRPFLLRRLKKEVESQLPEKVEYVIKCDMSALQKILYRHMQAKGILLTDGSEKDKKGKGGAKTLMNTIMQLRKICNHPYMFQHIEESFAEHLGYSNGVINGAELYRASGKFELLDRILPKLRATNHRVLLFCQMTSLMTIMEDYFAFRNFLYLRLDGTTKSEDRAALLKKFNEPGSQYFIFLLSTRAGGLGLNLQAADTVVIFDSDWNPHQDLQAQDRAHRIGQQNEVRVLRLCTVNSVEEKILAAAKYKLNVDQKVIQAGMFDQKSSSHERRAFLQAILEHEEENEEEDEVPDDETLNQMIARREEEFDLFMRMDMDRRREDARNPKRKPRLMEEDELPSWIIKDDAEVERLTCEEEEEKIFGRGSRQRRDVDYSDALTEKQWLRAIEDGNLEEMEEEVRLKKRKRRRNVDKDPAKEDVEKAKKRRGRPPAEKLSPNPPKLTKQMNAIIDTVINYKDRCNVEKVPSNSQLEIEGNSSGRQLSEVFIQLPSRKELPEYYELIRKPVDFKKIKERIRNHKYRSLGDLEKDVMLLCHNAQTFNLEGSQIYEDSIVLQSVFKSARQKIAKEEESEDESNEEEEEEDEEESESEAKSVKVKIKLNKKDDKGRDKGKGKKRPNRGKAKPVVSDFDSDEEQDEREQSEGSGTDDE

[6] = target: T2, Mitogen-activated protein kinase kinase kinase 5 (Homo sapiens) (UniProt Q99683); assay: MAP3K5 SGC Tm panel (DSF); settings: for ΔTm: Compound concentration 10.0 uM
T2 sequence (whole entry): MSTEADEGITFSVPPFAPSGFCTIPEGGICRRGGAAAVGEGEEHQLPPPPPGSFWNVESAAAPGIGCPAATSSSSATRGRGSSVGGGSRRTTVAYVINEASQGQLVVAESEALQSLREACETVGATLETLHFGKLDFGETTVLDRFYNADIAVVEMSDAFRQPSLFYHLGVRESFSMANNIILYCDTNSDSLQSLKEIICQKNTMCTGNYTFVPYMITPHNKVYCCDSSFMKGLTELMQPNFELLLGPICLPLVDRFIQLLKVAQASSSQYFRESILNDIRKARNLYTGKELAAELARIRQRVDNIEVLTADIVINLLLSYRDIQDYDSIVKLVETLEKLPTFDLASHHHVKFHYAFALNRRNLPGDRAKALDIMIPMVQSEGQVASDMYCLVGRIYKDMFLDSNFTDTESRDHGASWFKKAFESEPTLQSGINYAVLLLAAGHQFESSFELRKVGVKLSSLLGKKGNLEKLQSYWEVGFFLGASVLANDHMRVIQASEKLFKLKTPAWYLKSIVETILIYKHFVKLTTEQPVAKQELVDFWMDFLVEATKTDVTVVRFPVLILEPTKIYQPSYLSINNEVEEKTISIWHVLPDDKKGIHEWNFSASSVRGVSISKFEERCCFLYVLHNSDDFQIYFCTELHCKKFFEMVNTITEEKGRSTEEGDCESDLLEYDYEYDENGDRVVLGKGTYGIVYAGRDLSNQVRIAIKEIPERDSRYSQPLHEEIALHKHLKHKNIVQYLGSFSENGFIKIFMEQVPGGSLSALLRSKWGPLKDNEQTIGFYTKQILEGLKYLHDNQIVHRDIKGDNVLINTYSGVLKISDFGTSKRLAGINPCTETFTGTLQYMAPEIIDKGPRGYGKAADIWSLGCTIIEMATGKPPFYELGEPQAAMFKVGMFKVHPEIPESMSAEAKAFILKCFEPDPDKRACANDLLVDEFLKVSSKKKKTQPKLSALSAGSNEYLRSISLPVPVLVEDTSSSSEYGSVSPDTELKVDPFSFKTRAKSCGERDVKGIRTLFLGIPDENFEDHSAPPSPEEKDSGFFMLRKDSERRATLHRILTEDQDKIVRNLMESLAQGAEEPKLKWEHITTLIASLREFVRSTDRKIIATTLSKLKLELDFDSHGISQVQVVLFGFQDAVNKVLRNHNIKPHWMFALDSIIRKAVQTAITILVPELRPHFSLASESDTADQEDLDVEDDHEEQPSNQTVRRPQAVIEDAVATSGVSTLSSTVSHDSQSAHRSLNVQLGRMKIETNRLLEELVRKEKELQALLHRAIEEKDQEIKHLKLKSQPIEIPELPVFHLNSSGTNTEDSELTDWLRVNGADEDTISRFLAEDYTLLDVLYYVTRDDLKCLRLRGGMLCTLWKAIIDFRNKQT

[7] = target: Sigma intracellular receptor 2 (Homo sapiens) (UniProt Q5BJF2); settings: Compound concentration 10.0 uM
Sigma intracellular receptor 2 (Homo sapiens), sequence (Q5BJF2 whole entry): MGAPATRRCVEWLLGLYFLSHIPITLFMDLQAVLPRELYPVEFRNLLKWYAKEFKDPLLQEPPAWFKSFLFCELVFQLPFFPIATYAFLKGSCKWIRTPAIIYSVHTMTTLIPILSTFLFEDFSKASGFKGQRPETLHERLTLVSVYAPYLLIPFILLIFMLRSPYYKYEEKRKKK

Death-associated protein kinase 3 (Homo sapiens), sequence (O43293 whole entry, looked up): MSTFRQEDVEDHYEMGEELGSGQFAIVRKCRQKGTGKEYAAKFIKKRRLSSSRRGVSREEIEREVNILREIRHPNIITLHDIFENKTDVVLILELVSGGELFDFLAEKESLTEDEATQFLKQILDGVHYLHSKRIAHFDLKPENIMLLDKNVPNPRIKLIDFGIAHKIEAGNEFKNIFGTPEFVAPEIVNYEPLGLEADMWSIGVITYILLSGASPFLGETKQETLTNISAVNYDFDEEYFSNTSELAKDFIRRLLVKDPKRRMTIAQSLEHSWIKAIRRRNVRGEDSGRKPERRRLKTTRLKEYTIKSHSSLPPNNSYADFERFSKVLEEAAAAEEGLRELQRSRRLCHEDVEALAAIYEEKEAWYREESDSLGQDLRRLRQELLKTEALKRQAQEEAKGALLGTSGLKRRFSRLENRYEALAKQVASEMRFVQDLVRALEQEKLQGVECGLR
Alpha-1A adrenergic receptor (Homo sapiens), sequence (P35348 whole entry): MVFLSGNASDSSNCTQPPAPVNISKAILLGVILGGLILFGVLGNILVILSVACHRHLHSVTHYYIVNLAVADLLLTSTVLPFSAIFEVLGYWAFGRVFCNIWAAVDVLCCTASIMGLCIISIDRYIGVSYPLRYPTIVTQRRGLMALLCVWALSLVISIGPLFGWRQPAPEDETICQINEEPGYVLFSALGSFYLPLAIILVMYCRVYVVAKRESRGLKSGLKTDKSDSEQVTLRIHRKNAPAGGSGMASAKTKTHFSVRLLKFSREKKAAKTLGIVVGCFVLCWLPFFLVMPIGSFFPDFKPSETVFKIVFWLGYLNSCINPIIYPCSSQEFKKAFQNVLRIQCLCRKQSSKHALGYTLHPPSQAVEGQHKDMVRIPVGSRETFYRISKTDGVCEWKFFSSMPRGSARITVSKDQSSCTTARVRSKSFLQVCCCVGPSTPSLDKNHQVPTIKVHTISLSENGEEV

Row | inhibition [1] [%] | delta Tm Staurosporine positive control [3] | ΔTm [3] | inhibition [4] [%] | IC50 [5] | delta Tm Staurosporine positive control [6] | ΔTm [6] | inhibition [7] [%] | Structure (SMILES) | delta Tm Staurosporine positive control [2] | ΔTm [2]
1 | 12.3 | 13.4 | 0.528 | 5.62 | 29.8 nM (active) | 18.1 | 1.14 | 5.91 | COC[C@H](NC(=O)c1ccn(S(C)(=O)=O)c1)C(=O)Nc1nc(-c2cccc(-c3ccn(C)n3)c2)cs1 | 16.2 | -1.53
2 | 15.2 | 13.4 | 0.0519 | 3.44 | 4350 nM (not active) | 18.1 | 1.17 | 2.43 | C[C@H](NC(=O)c1cn(C2(C#N)CC2)cn1)C(=O)Nc1nc(-c2cccc(-c3ccn(C)n3)c2)cs1 | 16.2 | -1.05
